Biological target: T1, PAD1 (Homo sapiens, UniProt Q9ULC6)
T1 construct: made in house
T1 sequence (Q9ULC6 1-663): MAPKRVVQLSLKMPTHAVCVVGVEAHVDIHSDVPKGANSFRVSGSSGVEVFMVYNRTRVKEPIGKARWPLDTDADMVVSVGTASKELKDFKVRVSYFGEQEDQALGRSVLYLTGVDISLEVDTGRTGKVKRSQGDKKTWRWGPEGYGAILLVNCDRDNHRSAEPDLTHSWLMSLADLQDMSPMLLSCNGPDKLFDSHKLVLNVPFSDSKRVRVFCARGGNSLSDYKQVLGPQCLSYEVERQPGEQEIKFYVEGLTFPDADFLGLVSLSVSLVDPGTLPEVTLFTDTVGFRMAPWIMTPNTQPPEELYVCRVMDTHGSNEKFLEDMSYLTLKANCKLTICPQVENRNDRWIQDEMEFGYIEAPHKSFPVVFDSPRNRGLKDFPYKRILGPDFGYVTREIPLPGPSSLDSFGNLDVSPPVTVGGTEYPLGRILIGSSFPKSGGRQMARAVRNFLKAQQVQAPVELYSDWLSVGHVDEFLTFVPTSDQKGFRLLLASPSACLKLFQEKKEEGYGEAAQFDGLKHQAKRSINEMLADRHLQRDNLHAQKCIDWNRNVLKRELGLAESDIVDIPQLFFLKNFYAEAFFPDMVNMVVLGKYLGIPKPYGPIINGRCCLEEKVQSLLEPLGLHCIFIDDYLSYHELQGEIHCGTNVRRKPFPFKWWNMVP
Experiment: Limit of detection of PAD1 labelling in HEK293TPAD1 cells by probe
Format: cell-based
Conditions: 5 μM probe, 3 h; calculated from PAD1 content 0.06% of the total protein
Experimental: FIG. 16. (A) Time-dependent labelling of PAD1 in HEK293TPAD1 cells by 21. HEK293TPAD1 cells were treated with 21 (5 μM) in serum-free DMEM for various times. After the treatment, cells were harvested and flash-frozen in liquid nitrogen. Cell lysates were treated with TAMRA-N3, TCEP, TBTA and CuSO4 for 2 h at room temperature. Time-dependent labelling of PAD1 by 21 was recorded on a Typhoon scanner. (B) Limit of detection of PAD1 in HEK293TPAD1 cells by 21. For this study, cells were treated with 5 μM of 21 in serum-free DMEM for 3 h and decreasing amounts (indicated by total protein content) of lysates were clicked with TAMRA-N3 in the presence of TCEP, TBTA and freshly prepared CuSO4. […] F stands for fluorograph.
Dose-dependent Labelling of PAD1 in HEK293TPAD1 cells with 21. HEK293TPAD1 cells were plated in 6-well plates at a density of ˜1×10^6 cells/well and were allowed to grow in DMEM (supplemented with 10% heat-inactivated fetal bovine serum, 100 units/mL penicillin, 100 μg/mL streptomycin and 0.15 mg/mL hygromycin B) for 12 h. […] Soluble proteins in the lysate were quantified by DC-assay (Bio-Rad). […] Protein bands were visualized by recording in-gel fluorescence using a typhoon scanner (approximate excitation/emission maxima ˜546/579, respectively). […]

C#Cc1c(I)cc(C(=O)N[C@@H](CCCNC(=N)CF)c2nc3ccccc3[nH]2)c(O)c1I [Compound 21]
LOD of PAD1 in HEK293TPAD1 cells: 72 pmol
